Measurements reported in ChEMBL document CHEMBL3046170, “Docking, synthesis, and pharmacological investigation of novel substituted thiazole derivatives as non-carboxylic, anti-inflammatory, and analgesic agents” (Med Chem Res, 2013).

How the values were obtained:
Rattus norvegicus [1] = assay: Anti-inflammatory activity in Wistar albino Rattus norvegicus (rat) assessed as inhibition of carrageenan-induced paw edema at 25 mg/kg, po administered 1 hr prior to carrageenan-challenge measured after 3 hr by plethysmometer; assay type: functional
Rattus norvegicus [2] = assay: Anti-inflammatory activity in Wistar albino Rattus norvegicus (rat) assessed as inhibition of carrageenan-induced paw edema at 25 mg/kg, po administered 1 hr prior to carrageenan-challenge measured after 2 hr by plethysmometer; assay type: functional
Rattus norvegicus [3] = assay: Anti-inflammatory activity in Wistar albino Rattus norvegicus (rat) assessed as inhibition of carrageenan-induced paw edema at 25 mg/kg, po administered 1 hr prior to carrageenan-challenge measured after 1 hr by plethysmometer; assay type: functional
Rattus norvegicus [4] = assay: Anti-inflammatory activity in carrageenan-induced paw edema Wistar albino Rattus norvegicus (rat) model assessed as change in paw volume at 25 mg/kg, po administered 1 hr prior to carrageenan-challenge measured after 3 hr by plethysmometer (reference value: 1.200 +/-0.08 ml); assay type: functional
Rattus norvegicus [5] = assay: Anti-inflammatory activity in carrageenan-induced paw edema Wistar albino Rattus norvegicus (rat) model assessed as change in paw volume at 25 mg/kg, po administered 1 hr prior to carrageenan-challenge measured after 2 hr by plethysmometer (reference value: 1.110 +/-0.07 ml); assay type: functional
Mus musculus = assay: Analgesic activity in Albino Mus musculus (mouse) assessed as inhibition of acetic acid-induced abdominal writhings at 25 mg/kg, po administered 50 min prior to acetic acid injection measured after 10 min; assay type: functional; details: Abdomen
Rattus norvegicus [6] = assay: Anti-inflammatory activity in carrageenan-induced paw edema Wistar albino Rattus norvegicus (rat) model assessed as change in paw volume at 25 mg/kg, po administered 1 hr prior to carrageenan-challenge measured after 1 hr by plethysmometer (reference value: 0.900 +/-0.03 ml); assay type: functional
Rattus norvegicus [7] = assay: Gastrointestinal toxicity in Wistar albino Rattus norvegicus (rat) stress model assessed as ulcerogenicity index at 25 mg/kg/day, po for 4 days measured on day 5; assay type: organism-based; design: route oral; details: in vivo, 96 h
Rattus norvegicus [8] = assay: Gastrointestinal toxicity in Wistar albino Rattus norvegicus (rat) stress model assessed as ulcerogenicity index at 25 mg/kg/day, po for 4 days measured on day 5 relative to diclofenac sodium; assay type: organism-based; design: route oral; details: in vivo, 96 h

Row | SMILES | inhibition in vivo at 25 mg/kg (Rattus norvegicus [1]) [%] | inhibition in vivo at 25 mg/kg (Rattus norvegicus [2]) [%] | inhibition in vivo at 25 mg/kg (Rattus norvegicus [3]) [%] | Activity (Rattus norvegicus [4]) [mL] | Activity (Rattus norvegicus [5]) [mL] | inhibition in vivo at 25 mg/kg (Mus musculus) [%] | Activity (Rattus norvegicus [6]) [mL] | UI (Rattus norvegicus [7]) | Activity (Rattus norvegicus [8]) [%]
1 | c1ccc(-c2nc(-c3nnn[nH]3)cs2)cc1 | 40.4 | 38.1 | 30.8 | 0.935 | 0.885 | 16.5 | 0.825 |  | 
2 | CN(C)CCSc1nnc(-c2csc(-c3ccccc3)n2)o1 | 25.9 | 31.1 | 22.7 | 0.999 | 0.904 | 18.6 | 0.787 |  | 
3 | Nn1c(-c2csc(-c3ccccc3)n2)n[nH]c1=O | 19 | 23.1 | 15.2 | 1.074 | 0.979 | 19.7 | 0.844 |  | 
4 | c1ccc(-c2nc(-c3nnco3)cs2)cc1 | 27 | 31.5 | 24.2 | 1.052 | 0.962 | 18.1 | 0.842 |  | 
5 | CCOC(=O)c1cnn(C(=O)c2csc(-c3ccccc3)n2)c1N | 60.3 | 63 | 45.1 | 0.79 | 0.74 | 61.2 | 0.721 | 0.6 | 10
6 | O=C([O-])Cc1ccccc1Nc1c(Cl)cccc1Cl.[Na+] [DICLOFENAC SODIUM] | 54.9 | 56.7 | 40.6 | 0.85 | 0.8 | 58 | 0.762 | 4.67 | 
7 | Nc1cc(-c2ccccc2)nn1C(=O)c1csc(-c2ccccc2)n1 | 55.2 | 60.5 | 42.1 | 0.942 | 0.873 | 60.1 | 0.851 | 0.62 | 10
8 | S=c1oc(-c2csc(-c3ccccc3)n2)nn1CN1CCCCC1 | 55.5 | 57.4 | 44.8 | 0.862 | 0.812 | 58.7 | 0.764 | 0.54 | 10
9 | Sc1nnc(-c2csc(-c3ccccc3)n2)o1 | 50.8 | 53.8 | 37.9 | 0.84 | 0.78 | 58.1 | 0.735 | 0.52 | 10
10 | O=c1[nH]nc(-c2csc(-c3ccccc3)n2)o1 | 48.4 | 49.1 | 34.8 | 0.935 | 0.885 | 42.2 | 0.825 | 0.44 | 10
11 | Nc1nnc(-c2csc(-c3ccccc3)n2)o1 | 21.4 | 25.5 | 18.2 | 1.105 | 1.012 | 20.3 | 0.88 |  | 
12 | c1ccc(-c2nc(-c3nnc(SCCN4CCOCC4)o3)cs2)cc1 | 21.6 | 23.5 | 14.5 | 1.076 | 0.995 | 21.8 | 0.864 |  | 
